Like-named read-outs stand apart in the source and are kept apart here. Blank lines part the entries; values can stand above or below the molecule they belong to.
Legend:
MCR-1 = molecular target: T1, MCR-1 (Homo sapiens, UniProt Q01726); experiment: Melanocortin receptor binding assay, competition with 125I-HP 467, HEK 293 cells expressing hMCR-1; conditions: for IC50: read-out: MC-1 IC50
T1 construct: expressed in transfected cells; host or cells: HEK 293
How it was run: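 Test compounds compete on intact HEK 293 cells carrying hMCR-1 (2×10^4 per tube) or hMCR-4 (4×10^3 per tube), suspended in PBS, 10% calf serum, 1 mM CaCl2.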

MCR-4 = molecular target: T2, MCR-4 (Homo sapiens, UniProt P32245); experiment: Melanocortin receptor binding assay, competition with 125I-HP 467, HEK 293 cells expressing hMCR-4; conditions: for IC50: read-out: MC-4 IC50
T2 construct: expressed in transfected cells; host or cells: HEK 293
T2 sequence (P32245 whole entry): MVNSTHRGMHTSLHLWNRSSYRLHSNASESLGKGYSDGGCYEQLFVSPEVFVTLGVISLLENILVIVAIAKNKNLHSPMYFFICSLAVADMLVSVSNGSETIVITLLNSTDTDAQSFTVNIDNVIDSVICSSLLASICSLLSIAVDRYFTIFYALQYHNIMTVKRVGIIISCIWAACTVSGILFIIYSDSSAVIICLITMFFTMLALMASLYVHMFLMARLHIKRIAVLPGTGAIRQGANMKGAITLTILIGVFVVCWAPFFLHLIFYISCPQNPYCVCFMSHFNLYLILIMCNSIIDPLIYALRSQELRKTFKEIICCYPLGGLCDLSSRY
Method: All cell culture media and reagents were obtained from GibcoBRL (Gaithersburg Md.), except for COSMIC CALF SERUM (HyClone; Logan Utah).
Cells were suspended in PBS, 10% COSMIC CALF SERUM and 1 mM CaCl2. Cell suspensions were prepared at a density of 2×10^4 cells/ml for HEK 293 cells expressing hMCR-3, hMCR-4 or hMCR-5, and 1×10^5 cells/ml for HEK 293 cells expressing hMCR-1. Suspensions were placed in a water bath and allowed to warm to 37° C. for 1 hr.
Binding assays were performed in a total volume of 250 μl for HEK 293 cells. […] To each tube was added 4×10^3 HEK 293 cells expressing hMCR-3, hMCR-4 or hMCR-5, or 2×10^4 cells expressing hMCR-1. Assays were incubated for 2.5 hr at 37° C.
GF/B filter plates were prepared by soaking for at least one hour in 5 mg/ml BSA and 10 mM CaCl2. Assays were filtered using a Brandel 96-well cell harvester (Brandel Inc.; Gaithersburg, Md.). The filters were washed four times with cold 50 mM Tris, pH 7.4, the filter plates were dehydrated for 2 hr and 35 μl of MICROSCINT was added to each well. Filter plates were counted using a Packard Topcount (Packard Instrument Co.) and data analyzed using GraphPad PRISM v2.0 (GraphPad Software Inc.; San Diego Calif.) and Microsoft EXCEL v5.0a (Microsoft Corp.; Redmond Wash.).
To assay isoquinoline compounds, binding assays were performed in duplicate in a 96 well format. […] A 0.2 ml aliquot of suspended cells was added to each well to give the cell numbers indicate above, and the cells were incubated at 37° C. for 2.5 hr. Cells were harvested on GF/B filter plates as described above and counted.

[1] = TRG 2406 and TRG 2407 libraries, inhibition of binding of 125I-HP 467
[2] = competition with 125I-HP 467, HEK 293 cells expressing MCR-1
[3] = competition with 125I-HP 467, HEK 293 cells expressing MCR-4
[4] = inhibition of binding of 125I-HP 467, HEK 293 cells expressing MCR-1, TRG 2414 library
[5] = inhibition of binding of 125I-HP 467, HEK 293 cells expressing MCR-4, TRG 2414 library
[6] = TRG 2414 library, inhibition of binding of 125I-HP 467, HEK 293 cells expressing MCR-1
[7] = TRG 2414 library, inhibition of binding of 125I-HP 467, HEK 293 cells expressing MCR-4
[8] = TRG 2408 and TRG 2409 libraries, inhibition of 125I-HP 467 binding
[9] = inhibition of binding of 125I-HP 467, HEK 293 cells expressing MCR-1
[10] = inhibition of binding of 125I-HP 467, HEK 293 cells expressing MCR-4

T1 sequence (Q01726 whole entry): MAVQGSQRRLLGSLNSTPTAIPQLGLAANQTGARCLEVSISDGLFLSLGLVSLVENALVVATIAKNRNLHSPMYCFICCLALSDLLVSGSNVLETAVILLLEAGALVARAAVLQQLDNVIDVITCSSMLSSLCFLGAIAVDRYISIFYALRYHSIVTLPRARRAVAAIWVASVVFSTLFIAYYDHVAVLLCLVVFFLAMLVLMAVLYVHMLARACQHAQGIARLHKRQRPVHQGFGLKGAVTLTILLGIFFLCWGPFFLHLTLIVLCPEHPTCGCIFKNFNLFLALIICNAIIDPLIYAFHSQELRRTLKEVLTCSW

SMILES: CCNc1ccc(C2C(CNc3ccccc3Cl)c3ccccc3CN2CCCCC(CN)NC)cc1 (stereo not shown) [TRG 2407-43]
IC50 (MCR-1; [1]): 7.07 µM
IC50 (MCR-4; [1]): 11.2 µM

SMILES: CNC(CN)CCCCN1Cc2ccccc2C(CNC2CCCCC2)C1c1ccc(NCCc2ccc(Cl)c(Cl)c2)cc1 (stereo not shown) [TRG 2409-23]
IC50 (MCR-1; [2]): 4.77 µM
IC50 (MCR-4; [3]): 19.6 µM

SMILES: CCCCNC(CN)CCCCN1Cc2ccccc2C(CN)C1c1ccc(-c2ccccc2)cc1 (stereo not shown) [TRG 2411-33]
IC50 (MCR-1; [2]): 0.39 µM
IC50 (MCR-4; [3]): 1.73 µM

SMILES: CCCOc1ccc(C2C(CNC3CCCCC3)c3ccccc3CN2CCCCC(CN)NCc2ccccc2)cc1 (stereo not shown) [Cmpd 199]
IC50 (MCR-1; [6]): 1.29 µM
IC50 (MCR-4; [7]): 5.15 µM

SMILES: NCC(CCCCN1Cc2ccccc2C(CNC2CCCCC2)C1c1ccc(Cl)cc1Cl)NCc1ccccc1 (mixture of isomers) [TRG 2414-39]
IC50 (MCR-1; [4]): 2.12 µM
IC50 (MCR-4; [5]): 4.37 µM

SMILES: CCN(CC)CC1c2ccccc2CN(CCCCC(CN)NC)C1c1ccc(Cl)cc1Cl (stereo not shown) [TRG 2407-35]
IC50 (MCR-1; [1]): 6.52 µM
IC50 (MCR-4; [1]): 3.41 µM

SMILES: CNCCNC(CN)CCCCN1Cc2ccccc2C(CNC2CCCCC2)C1c1ccc(Cl)cc1Cl (stereo not shown) [TRG 2408-44]
IC50 (MCR-1; [8]): 1.27 µM
IC50 (MCR-4; [8]): 5.06 µM

SMILES: CC(C)Cc1ccc(C(C)CNC(CN)CCCCN2Cc3ccccc3C(CNCc3ccccc3C(F)(F)F)C2c2cc(C(F)(F)F)cc(C(F)(F)F)c2)cc1 (stereo not shown) [TRG 2414-44]
MC-1 IC50 (MCR-1; [4]): no fit
MC-4 IC50 (MCR-4; [5]): no fit

SMILES: CNC(CN)CCCN1Cc2ccccc2C(CNC2CCCCC2)C1c1ccc(-c2ccccc2)cc1 (stereo not shown) [TRG 2408-80]
IC50 (MCR-1; [8]): 2.18 µM
IC50 (MCR-4; [8]): 12.2 µM

SMILES: CCCCCc1ccc(C2C(CO)c3ccccc3CN2CCCC(CN)NCCC2CCCCC2)cc1 (stereo not shown) [TRG 2415-8]
IC50 (MCR-1; [9]): 6.21 µM
IC50 (MCR-4; [10]): 13.8 µM

SMILES: CCNc1ccc(C2C(CN)c3ccccc3CN2CCCC(CN)NCCC2CCCCC2)cc1 (stereo not shown) [TRG 2411-186]
effectiveness as MC receptor ligand (MCR-1; binding to MC receptors, Table 1): particularly effective MC receptor ligands
IC50 (MCR-1; [9]): 0.03 µM
IC50 (MCR-4; [10]): 0.58 µM

SMILES: NCCNC(CN)CCN1Cc2ccccc2C(CNC2CCCCC2)C1c1ccc(Cl)cc1Cl (stereo not shown) [TRG 2408-103]
IC50 (MCR-1; [8]): 5.41 µM
IC50 (MCR-4; [8]): 8.8 µM

Second part, the molecule after the results:

IC50 (MCR-1; [4]): 2.5 µM
IC50 (MCR-4; [5]): 1.26 µM
SMILES: COc1ccc(CNCC2c3ccccc3CN(CCCCC(N)CN)C2c2cccc(Oc3ccccc3)c2)cc1 (stereo not shown) [TRG 2414-101]

IC50 (MCR-1; [4]): 27.4 µM
MC-4 IC50 (MCR-4; [5]): no fit
SMILES: COc1ccccc1CCNCC1c2ccccc2CN(CCCCC(CN)NCC(C)c2ccc(CC(C)C)cc2)C1c1ccc(Oc2ccccc2)cc1 (stereo not shown) [TRG 2414-132]

IC50 (MCR-1; [4]): 0.739 µM
IC50 (MCR-4; [5]): 5.07 µM
SMILES: CCCOc1ccc(C2C(CNCc3cccc(OC)c3)c3ccccc3CN2CCCCC(N)CN)cc1 (mixture of isomers) [TRG 2414-177]

IC50 (MCR-1; [6]): 7.9 µM
IC50 (MCR-4; [7]): 20 µM
SMILES: CCCOc1ccc(C2C(CNCCc3ccc(OC)cc3)c3ccccc3CN2CCCCC(CN)NCC(C)c2ccc(CC(C)C)cc2)cc1 (stereo not shown) [Cmpd 188]

IC50 (MCR-1; [4]): 1.12 µM
IC50 (MCR-4; [5]): 1.57 µM
SMILES: COc1ccc(CNCC2c3ccccc3CN(CCCCC(N)CN)C2c2ccc(Cl)cc2Cl)cc1 (stereo not shown) [TRG 2414-21]

IC50 (MCR-1; [4]): 6.34 µM
IC50 (MCR-4; [5]): 0.92 µM
SMILES: CCOc1ccccc1CNCC1c2ccccc2CN(CCCCC(N)CN)C1c1cc(C(F)(F)F)cc(C(F)(F)F)c1 (stereo not shown) [TRG 2414-45]

IC50 (MCR-1; [9]): 0.26 µM
IC50 (MCR-4; [10]): 1.34 µM
SMILES: CCNc1ccc(C2C(CNCCc3ccccc3)c3ccccc3CN2CCCC(CN)NCCc2ccccc2)cc1 (stereo not shown) [TRG 2413-9]

IC50 (MCR-1; [4]): 18.6 µM
MC-4 IC50 (MCR-4; [5]): no fit
SMILES: CC(C)Cc1ccc(C(C)CNC(CN)CCCCN2Cc3ccccc3C(CNC3CCCCCC3)C2c2ccc(Oc3ccccc3)cc2)cc1 (stereo not shown) [TRG 2414-156]

IC50 (MCR-1; [6]): 32.7 µM
IC50 (MCR-4; [7]): 23.4 µM
SMILES: CC(C)Cc1ccc(C(C)CNC(CN)CCCCN2Cc3ccccc3C(CNCc3ccccc3)C2c2ccccc2Br)cc1 (stereo not shown) [Cmpd 232]

Source: US6608082B1, “Treatment of erectile dysfunction using isoquinoline compound melanocortin receptor ligands” (Lion Bioscience AG, priority 1998, dated 2003)
